Assay results reported in patent US20240208896A1, “PRODRUGS OF KV7 CHANNEL OPENERS” (Xyzagen, Inc., priority 2021, published 2024).
Where two headings read alike, the source gives them in different places.

Experiments:
[1] = Solvent solubility assessment by visual inspection; assay type: physicochemical
Procedure: Compounds were weighed and placed into a 4 dram vials and solvents were added to the target concentration. Compounds were vortex and visually inspected for particulates and considered soluble if clear upon visual inspection with and without magnification. Solubility was reported as either greater than (>) or less than (<) from the prepared concentration. […] It was evaluated at 10 mg/mL in 0.1 N NaCl and was freely soluble. It was evaluate at 1 mg/mL in 0.1 N NaOH and 0.1 N Na2HPO4 and was freely soluble. In ethanol and methanol it was freely soluble at a concentration of 75 mg/mL. […] It was freely soluble at 75 mg/mL in methanol and ethanol. It was soluble at 1 mg/mL in 1N HCl.

[2] = Benchtop solvent stability exposed to light, HPLC-UV 230 nm, up to 7 days; assay type: physicochemical; conditions: over 4 days
Procedure: Compounds in solvent were left on the benchtop exposed to light for up to 7 days since it is known that Compound 1 will degrade with light within 3-7 days.
Stability was assessed by taking an aliquot from the solubility vials at each test day. A single replicate was injected for each test condition.
Samples were injected onto an HPLC system with an aqueous mobile phase and acetonitrile organic phase and compounds were separated on a C8 50×2 mm column. Wavelength 230 nm was monitored for absorption and integrated for peak area while the mass spectrometer was used to confirm mass. Samples were tested on Day 1 and on subsequent days through Day 7.

[3] = 1000 ng/mL
Procedure: Plasma was collected by the biomaterial vendor and kept frozen at −20° C.
The samples were analyzed by HPLC separation and mass spectrometry detection for prodrug amount, relative to a baseline time 0 control sample. Triplicate samples were generated at each time point and the peak area response was averaged and converted to a percent of baseline control.

[4] = Pharmacokinetics of ezogabine prodrugs in rat (IV, IM, PO); conditions: rat, in vivo, po
Procedure: Blood was diluted by 10% with these stabilizers.
Extraction of the molecules was conducted by taking a 50 uL aliquot of plasma and adding 200 uL of acetonitrile containing 200 ng/mL tolbutamide as the internal standard. Samples were precipitated in a 96 well plate, centrifuges and an aliquot transferred to a new plate, dried down under heat and nitrogen and then reconstituted in the initial mobile phase conditions of the LC-MS/MS method. […] A standard curve was prepared from 5000 ng/mL to 1 ng/mL for each analyte. Concentration data from the bioanalytical run was analyzed by Phoenix Winnonlin version 8 for noncompartmental PK analysis, plotting of concentration time curves and tabulation of PK parameters.
150 uL of blood were collected at predesignated time points. At completion of the study animals were asphyxiated by carbon dioxide gas and exsanguinated for euthanasia.

[5] = target: Human Kv7.2/7.3 (Homo sapiens, UniProt O43525+O43526); assay: In vitro screen of Kv7.2/7.3 voltage gated potassium channels (FluxOR, FLIPR); assay type: cell-based; conditions: Human Kv7.2/7.3 cells; FluxOR fluorescence; 0.03 to 30 μM
Procedure: Human Kv7.2/7.3 cells are harvested, counted and seeded in black, clear-bottomed 96 well plates at a density of 50,000 cells per well in 100 μl volume and incubated overnight. The following day, media was removed and 40 μl of loading buffer (4.895 mL HBSS:HEPES, 50 μL probenecid, 50 μL power load, 5 μl FluxOR reagent) was added and incubated at room temperature for 30 minutes. After incubation loading buffer was removed and 40 μl of assay buffer added (4.45 ml HBSS:HEPES, 500 μl FluxOR assay buffer and 50 μL probenecid) and incubated for 10 minutes.

[6] = tested on: MES induced seizures in Rat; assay: SD rat MES test after IM administration; assay type: in vivo; conditions: SD rats, IM 75 mg/kg
Procedure: All treatments were at 0.083, 0.25, 0.5, 1, 2, 4, and 8 hours prior to the administration of MES test, where 6 seconds where 6 seconds without a seizure was considered protected.

[7] = Rat PK at equimolar dose to Ezogabine (20 mg/kg) in 0.5% methylcellulose; conditions: male cannulated rats; equimolar to Ezogabine 20 mg/kg; 0.5% methylcellulose; analyte the dosed prodrug
Procedure: (§1) Blood samples were collected at the same time points over 24 hours to generate a concentration time profile. Two male rats were dosed per group. Plasma samples were analyzed by LC/MS/MS and the resulting concentration time profiles and PK parameters are provided.
as §1, §1

[8] = tested on: formalin inflammatory model; assay: Formalin inflammatory pain model (hind paw flick/lick); assay type: in vivo; conditions: male CD-1 mouse; 100 mg/kg SC 30 minutes before 5% formalin; both phases (0-10 and 15-40 min)
Procedure: Compound 4 was assessed in the […] formalin inflammatory model. The number of flicks/licks of a male CD-1 mouse in the acute phase 0-10 minute and the inflammatory phase from 15-40 min after intraplantar administration of 50 μL of 5% formalin was recorded. […] Data is presented over the duration of the observation periods in 2 minute bins.

[9] = Acid and organic solution stability, HPLC-UV 250 nm; conditions: 5 mg/mL
Procedure: An HPLC-UV Vis method was developed using 0.1% Formic acid in water as mobile phase A and 0.1% Formic acid in acetonitrile as mobile Phase B. A gradient method was developed ramping from 10% A to 90% B over 8 minutes and then returning to 10% A at 8.5 minutes on a 4.6×50 mm Zorbax C-18 column. Injections of 10 uL of stability solutions were injected for analyte detection.
[…] Aliquots were collected at serial time points and then diluted to a nominal concentration of 100 ug/mL for injection to the HPLC and 250 nm monitored by the diode array detector. Data at approximately 10 days is presented.
Aliquots were collected at serial time points and then diluted to a nominal concentration of 100 ug/mL for injection to the HPLC and 250 nm monitored by the diode array detector.
(§2) It was also evaluated at 2 N HCl at 37° C. Aliquots were collected at serial time points and then diluted to a nominal concentration of 100 ug/mL for injection to the HPLC and 250 nm monitored by the diode array detector.
as §2, §2, §2

Human Kv7.2/7.3, sequence (O43526 whole entry): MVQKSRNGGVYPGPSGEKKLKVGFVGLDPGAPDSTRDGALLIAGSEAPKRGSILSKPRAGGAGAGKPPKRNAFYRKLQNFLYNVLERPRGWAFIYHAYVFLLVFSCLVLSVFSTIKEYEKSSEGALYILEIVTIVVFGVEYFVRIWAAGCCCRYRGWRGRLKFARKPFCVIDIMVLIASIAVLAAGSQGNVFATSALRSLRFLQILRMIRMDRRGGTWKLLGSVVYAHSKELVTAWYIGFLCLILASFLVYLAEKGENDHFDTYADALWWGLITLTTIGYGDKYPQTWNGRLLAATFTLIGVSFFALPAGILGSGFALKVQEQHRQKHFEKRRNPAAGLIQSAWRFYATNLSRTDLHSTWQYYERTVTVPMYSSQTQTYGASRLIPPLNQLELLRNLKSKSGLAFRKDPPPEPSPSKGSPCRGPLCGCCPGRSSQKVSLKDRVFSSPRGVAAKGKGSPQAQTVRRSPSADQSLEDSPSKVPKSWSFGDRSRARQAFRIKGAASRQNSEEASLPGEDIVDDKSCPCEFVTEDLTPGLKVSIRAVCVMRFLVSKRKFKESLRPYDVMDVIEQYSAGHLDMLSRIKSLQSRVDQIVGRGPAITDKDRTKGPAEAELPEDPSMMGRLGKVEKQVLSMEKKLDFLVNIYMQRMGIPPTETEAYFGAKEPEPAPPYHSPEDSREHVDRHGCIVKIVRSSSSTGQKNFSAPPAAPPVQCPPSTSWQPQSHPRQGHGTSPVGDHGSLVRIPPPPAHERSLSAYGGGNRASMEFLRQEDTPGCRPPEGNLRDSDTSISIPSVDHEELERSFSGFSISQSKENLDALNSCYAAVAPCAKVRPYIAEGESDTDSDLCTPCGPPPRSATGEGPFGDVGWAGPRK
Human Kv7.2/7.3, sequence (O43525 whole entry): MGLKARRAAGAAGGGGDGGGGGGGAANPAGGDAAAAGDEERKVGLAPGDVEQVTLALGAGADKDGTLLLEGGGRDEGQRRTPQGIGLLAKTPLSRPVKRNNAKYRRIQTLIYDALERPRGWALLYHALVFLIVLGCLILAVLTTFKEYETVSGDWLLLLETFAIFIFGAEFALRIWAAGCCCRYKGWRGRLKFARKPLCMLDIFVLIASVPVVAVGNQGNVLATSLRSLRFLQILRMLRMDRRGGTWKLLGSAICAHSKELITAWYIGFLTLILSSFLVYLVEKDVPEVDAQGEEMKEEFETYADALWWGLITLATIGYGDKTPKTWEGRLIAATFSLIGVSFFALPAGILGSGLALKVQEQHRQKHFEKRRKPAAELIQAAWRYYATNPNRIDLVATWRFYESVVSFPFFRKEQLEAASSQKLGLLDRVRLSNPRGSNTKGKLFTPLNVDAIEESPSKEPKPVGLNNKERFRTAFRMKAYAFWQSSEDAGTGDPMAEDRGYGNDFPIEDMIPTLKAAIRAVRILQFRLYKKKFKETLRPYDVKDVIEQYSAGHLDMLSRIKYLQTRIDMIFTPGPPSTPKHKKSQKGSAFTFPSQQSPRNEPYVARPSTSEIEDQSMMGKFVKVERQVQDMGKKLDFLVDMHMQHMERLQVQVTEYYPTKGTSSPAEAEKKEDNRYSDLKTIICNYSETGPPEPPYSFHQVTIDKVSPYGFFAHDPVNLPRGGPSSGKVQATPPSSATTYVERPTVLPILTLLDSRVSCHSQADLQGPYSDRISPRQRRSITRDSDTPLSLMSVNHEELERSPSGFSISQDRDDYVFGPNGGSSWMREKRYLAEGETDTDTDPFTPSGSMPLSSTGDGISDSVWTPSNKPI

`CCOC(=O)Nc1ccc(NCc2ccc(F)cc2)cc1NC(=O)[C@@H](N)CCCCN` [Compound 4] gave a Solubility ([1]; 0.1N HCl) of over 20 mg/mL, a Solubility ([1]; 0.1 N Na2HPO4, aqueous buffer, thermodynamic from solid, read-out: Solubility (freely soluble at tested concentration)) of over 1 mg/mL and a Solubility ([1]; 0.1N NaCl) of over 10 mg/mL. For the same compound, the Solubility ([1]; 0.1 N NaCl, saline or isotonic, thermodynamic from solid, read-out: Solubility (freely soluble at tested concentration)) was over 10 mg/mL, the Solubility ([1]; 0.1N NaOH) was over 1 mg/mL and the Solubility ([1]; 0.1 N NaOH, aqueous buffer, thermodynamic from solid, read-out: Solubility (freely soluble at tested concentration)) was over 1 mg/mL. For the same compound, the Solubility ([1]; 0.1 Na2HPO4) was over 1 mg/mL, the Solubility ([1]; Ethanol) was over 75 mg/mL and the Solubility ([1]; Methanol) was over 75 mg/mL. For the same compound, the Solubility ([1]; Water) was over 20 mg/mL, the Solubility ([1]; ethanol, organic solvent or mixture, thermodynamic from solid, read-out: Solubility (freely soluble at tested concentration)) was over 75 mg/mL and the Solubility ([1]; methanol, organic solvent or mixture, thermodynamic from solid, read-out: Solubility (freely soluble at tested concentration)) was over 75 mg/mL. The Solubility ([1]; saline or isotonic, 0.9% w/v NaCl, for in vivo studies, read-out: Solubility (formulated as freely soluble solution)) was at least 150 mg/mL, the Solubility ([1]; simulated gastric fluid, thermodynamic from solid, 0.1N HCl, read-out: Solubility (freely soluble at tested concentration)) was over 20 mg/mL and the Solubility ([1]; water, thermodynamic from solid, read-out: Solubility (freely soluble at tested concentration)) was over 20 mg/mL. For the same compound, the “Reduction in peak area” value ([2]; 0.1N NaOH) was over 50%, the Stability in solvent ([2]; all test conditions except 0.1 N NaOH) was “appears stable” and the “Time by which prodrug is degraded in plasma” value ([3]; mouse) was at most 6 h. The Plasma stability ([3]; rat, 6 h) was “stable through 6 hours”, the “Percent remaining in plasma” value ([3]; rat, plasma, 23 h) was “below 50%” and the “Exposure of the prodrug itself in systemic circulation” value [4] was “slightly more detectable”. For the same compound, the “Activity against the primary target of Kv7.2/7.3” value [5] was “inactive”, the “Protection from MES induced seizures” value ([6]; 2 through 8 hours post dose) was “fully protected” and the “Protection from MES induced seizures” value ([6]; 1 h post dose) was “almost fully protected”. For the same compound, the AUClast/D [7] was 6.26 ng·h/mL/mg/kg, the Cmax/D [7] was 2.34 ng/mL/mg/kg and the “Reduction in behavioral response (flicks/licks) compared to vehicle” value [8] was 50%. The “Colour of stability solution” value [9] was “remained clear and colorless through Day 18”, the “Ezogabine Area (formed from the prodrug)” value ([9]; 0.1N HCl, room temp., normal light, 269 h) was 0 mAU and the “Ezogabine Area (formed from the prodrug)” value ([9]; 1N HCl, room temp., normal light, 269 h) was 0 mAU. For the same compound, the “Ezogabine Area (formed from the prodrug)” value ([9]; 2N HCl 37C, 436 h) was 167 mAU, the “Ezogabine Area (formed from the prodrug)” value ([9]; 2N HCl, room temp., normal light, 269 h) was 38 mAU and the “Ezogabine Area (formed from the prodrug)” value ([9]; Methanol, room temp., normal light, 437 h) was 0 mAU. The “Ezogabine Area (formed from the prodrug)” value ([9]; PBS, room temp., normal light, 435 h) was 0 mAU, the “Degradation / conversion to ezogabine in solution” value ([9]; acidic solutions and organic solvents, up to 3 weeks) was “very little degradation to ezogabine” and the “% Remaining” value ([9]; 437 h) was 98.5%. The “% Remaining” value ([9]; buffer, 435 h) was 99.2% and the “% Remaining” value ([9]; buffer, 436 h) was 94.9%.
